These results are taken from patent US11185074B2, “Microbiocidal quinoline (thio)carboxamide derivatives” (SYNGENTA PARTICIPATIONS AG, priority 2017, dated 2021).

Data set [1] concerns Botryotinia fuckeliana (Botrytis cinerea). In words: Botryotinia fuckeliana (Botrytis cinerea) / liquid culture (gray mould). Format: cell-based. The settings on record: 72 h, 20 ppm, liquid culture, inhibition of growth photometrically 3-4 days after application, compared to untreated control, read-out: control of Botryotinia fuckeliana.
Data set [2] has as its system Glomerella lagenarium (Colletotrichum lagenarium). The data set is described as follows: Glomerella lagenarium (Colletotrichum lagenarium) / liquid culture (anthracnose). Format: cell-based. Particulars: Colletotrichum orbiculare; 20 ppm; liquid culture, inhibition of growth photometrically 3-4 days after application; compared to untreated control; read-out: control of Glomerella lagenarium.

Data set [3] deals with Fusarium culmorum. The data set is described as follows: microbe, parasite or virus in culture. Format: cell-based. Particulars: read-out: control of Fusarium culmorum.
The subject of data set [4] is Fusarium culmorum. The data set is described as follows: whole plant or invertebrate. Format: in vivo, Fusarium culmorum on wheat spikelets cv. Monsun. The settings on record: in Triticum aestivum, read-out: control of Fusarium culmorum.
Data set [5] has as its system Gibberella zeae (Fusarium graminearum). The data set is described as follows: whole plant or invertebrate. Format: in vivo. The settings on record: in Triticum aestivum, 144 h, read-out: control of Gibberella zeae.
Data set [6] has as its system Monographella nivalis (Microdochium nivale). In words: Monographella nivalis (Microdochium nivale) / liquid culture (foot rot cereals). Format: cell-based. Particulars: 96 h, inhibition of growth photometrically 4-5 days after application, compared to untreated control.
Data set [7] relates to Magnaporthe grisea (Pyricularia oryzae). The data set is described as follows: microbe, parasite or virus in culture. It counts as cell-based. Particulars: 72 h, read-out: control of Magnaporthe grisea.
Data set [8] concerns Sclerotinia sclerotiorum. In words: Sclerotinia sclerotiorum / liquid culture (cottony rot). The settings on record: 72 h, read-out: control of Sclerotinia sclerotiorum.
Method: Sclerotinia sclerotiorum/Liquid Culture (Cottony Rot)
Mycelia fragments of a newly grown liquid culture of the fungus are directly mixed into nutrient broth (Vogels broth). After placing a (DMSO) solution of test compound into a microtiter plate (96-well format) the nutrient broth containing the fungal material is added. The test plates are incubated at 24° C. and the inhibition of growth is determined photometrically 3-4 days after application.

By melting point is commonly meant the temperature of the solid-liquid transition. With `C=C(C)CC(C)(CC(=C)C)NC(=O)c1cnc2c(F)cccc2c1` [E-2, N-[1,3-dimethyl-1-(2-methylallyl)but-3-enyl]-8-fluoro-quinoline-3-carboxamide], the melting point fell in the range of 116 to 118 °C. In data set [1], the inhibition of growth at 20 ppm is at least 80%. In addition, the inhibition of growth at 20 ppm in data set [2] was at least 80%. The inhibition of growth at 20 ppm in data set [3] was at least 80%. The pest or weed control at 200 ppm in data set [4] is at least 80%. Also, the pest or weed control at 200 ppm in [5] was at least 80%. This compound also came in with an inhibition of growth at 20 ppm in data set [6] of at least 80%. Besides, in data set [7], the inhibition of growth at 20 ppm is at least 80%.

`CC(C)CC(C)(CC(C)C)NC(=O)c1cnc2c(F)cccc2c1` [E-4] showed a melting point of 139 to 142 °C. Besides, the inhibition of growth at 20 ppm in data set [1] was at least 80%. Moreover, the inhibition of growth at 20 ppm in data set [2] is at least 80%. Besides, the inhibition of growth at 20 ppm in [3] is at least 80%. The inhibition of growth at 20 ppm in data set [7] is at least 80%. Moreover, the inhibition of growth at 20 ppm in [8] was at least 80%.

Consider `C/C=C(\C)CC(C)(CC(C)C)NC(=O)c1cnc2c(F)cccc2c1` (stereo not shown) [E-5], for which the inhibition of growth at 20 ppm in [1], in [2], in data set [3], in data set [6] and in data set [7] was at least 80% throughout. For the same compound, the pest or weed control at 200 ppm in [4] and in data set [5] was at least 80% throughout.

As for `CC(C)=C(F)CC(C)(CC(C)C)NC(=O)c1cnc2c(F)cccc2c1` (stereo not shown) [E-6], the melting point is 119 to 121 °C. Moreover, in [1], the inhibition of growth at 20 ppm was at least 80%. In addition, in [2], the inhibition of growth at 20 ppm is at least 80%. Also, the inhibition of growth at 20 ppm in data set [3] was at least 80%. Besides, the pest or weed control at 200 ppm in data set [4] is at least 80%. In data set [5], the pest or weed control at 200 ppm is at least 80%. This compound had an inhibition of growth at 20 ppm in data set [6] of at least 80%. Also, in data set [7], the inhibition of growth at 20 ppm is at least 80%.

In turn, `CC(C)CC(C)(CCc1ccccc1)NC(=O)c1cnc2c(F)cccc2c1` (stereo not shown) [E-8] yielded a melting point of 170 to 175 °C. Moreover, the inhibition of growth at 20 ppm in [1] was at least 80%. In [2], the inhibition of growth at 20 ppm is at least 80%. Further, the inhibition of growth at 20 ppm in [3] is at least 80%. In data set [6], this compound displayed an inhibition of growth at 20 ppm of at least 80%. In addition, the inhibition of growth at 20 ppm in data set [7] was at least 80%. For the same compound, in data set [8], the inhibition of growth at 20 ppm was at least 80%.

`CC(C)CC(CC(C)C)NC(=O)c1cnc2c(F)cccc2c1` [E-9] returned a melting point of 170 to 172 °C. The inhibition of growth at 20 ppm in data set [1] is at least 80%. Also, the inhibition of growth at 20 ppm in data set [2] was at least 80%. In addition, the inhibition of growth at 20 ppm in data set [3] was at least 80%. In addition, the pest or weed control at 200 ppm in [4] was at least 80%. For the same compound, the pest or weed control at 200 ppm in data set [5] was at least 80%. The compound further gave an inhibition of growth at 20 ppm in [6] of at least 80%. The inhibition of growth at 20 ppm in [7] was at least 80%.

As to `C=C(C)CC(COC)(CC(=C)C)NC(=O)c1cnc2c(F)cccc2c1` [E-20], the melting point was 97 to 100 °C. Moreover, the inhibition of growth at 20 ppm in data set [1] was at least 80%. In [2], the inhibition of growth at 20 ppm was at least 80%. Besides, the inhibition of growth at 20 ppm in [3] was at least 80%. In data set [4], the pest or weed control at 200 ppm was at least 80%. The inhibition of growth at 20 ppm in data set [6] was at least 80%. The inhibition of growth at 20 ppm in data set [7] is at least 80%.

Consider `CC(C)(Cc1ccccc1)C(C)(C)NC(=O)c1cnc2c(F)cccc2c1` [E-21], for which the melting point fell in the range of 131 to 132 °C. In data set [1], the inhibition of growth at 20 ppm was at least 80%. Also, the inhibition of growth at 20 ppm in data set [3] was at least 80%. Further, the pest or weed control at 200 ppm in data set [4] is at least 80%. In addition, the pest or weed control at 200 ppm in [5] is at least 80%. Further, the inhibition of growth at 20 ppm in data set [6] was at least 80%. The inhibition of growth at 20 ppm in data set [7] was at least 80%.

Consider `CC(C)(CCCc1ccccc1)NC(=O)c1cnc2c(F)cccc2c1` [E-23], for which the inhibition of growth at 20 ppm in [1], in data set [2], in data set [3] and in data set [6] was at least 80% throughout. Besides, the pest or weed control at 200 ppm in data set [4] and in [5] was at least 80% each time.

For the compound `CCC(CC)CC(C)(CC(F)(F)F)NC(=O)c1cnc2c(F)cccc2c1` (stereo not shown) [E-45], the inhibition of growth at 20 ppm in [1], in [2], in data set [3], in [6] and in data set [7] was at least 80% in each case. Besides, the pest or weed control at 200 ppm in data set [5] is at least 80%.

In the case of `CCCC(C)CC(C)(CC(F)(F)F)NC(=O)c1cnc2ccccc2c1` (stereo not shown) [E-46], the inhibition of growth at 20 ppm in data set [1], in [2] and in data set [3] was at least 80% throughout. In addition, the pest or weed control at 200 ppm in [4] and in data set [5] was at least 80% in each case.

Compound `C=C(C)CC(C)(CC1CCCCC1)NC(=O)c1cnc2c(F)c(F)ccc2c1` (stereo not shown) [E-48] came in with a melting point of 115 to 117 °C. Besides, the inhibition of growth at 20 ppm in [1] was at least 80%. Further, the inhibition of growth at 20 ppm in data set [2] was at least 80%. Moreover, the inhibition of growth at 20 ppm in [3] was at least 80%. In addition, in data set [4], the pest or weed control at 200 ppm is at least 80%. Further, in [6], the inhibition of growth at 20 ppm is at least 80%. The inhibition of growth at 20 ppm in data set [7] is at least 80%. Further, in [8], the inhibition of growth at 20 ppm was at least 80%.

`Cc1cccc2cc(C(=O)NC(C)(CC3CC=CCC3)CC(F)(F)F)cnc12` (stereo not shown) [E-53] displayed a melting point of 112 to 114 °C. The inhibition of growth at 20 ppm in data set [1] was at least 80%. The inhibition of growth at 20 ppm in [2] is at least 80%. Moreover, the inhibition of growth at 20 ppm in data set [3] is at least 80%. In data set [6], the inhibition of growth at 20 ppm is at least 80%. Further, in data set [7], the inhibition of growth at 20 ppm was at least 80%. The inhibition of growth at 20 ppm in data set [8] is at least 80%.

Turning to `CC(CC1CC=CCC1)(CC(F)(F)F)NC(=O)c1cnc2c(F)cccc2c1` (stereo not shown) [E-54], the melting point fell in the range of 115 to 118 °C. The inhibition of growth at 20 ppm in [1] was at least 80%. For the same compound, the inhibition of growth at 20 ppm in data set [2] was at least 80%. Besides, the inhibition of growth at 20 ppm in data set [3] is at least 80%. In addition, the pest or weed control at 200 ppm in data set [4] was at least 80%. Further, the inhibition of growth at 20 ppm in data set [6] is at least 80%. In addition, the inhibition of growth at 20 ppm in [7] was at least 80%. For the same compound, the inhibition of growth at 20 ppm in data set [8] is at least 80%.

For `CC(CC1CC=CCC1)(CC(F)(F)F)NC(=O)c1cnc2ccccc2c1` (stereo not shown) [E-55], the melting point is 90 to 95 °C. The inhibition of growth at 20 ppm in data set [1] was at least 80%. Moreover, in data set [2], the inhibition of growth at 20 ppm is at least 80%. In addition, the inhibition of growth at 20 ppm in [3] is at least 80%. Moreover, the pest or weed control at 200 ppm in [4] is at least 80%. The compound also came in with an inhibition of growth at 20 ppm in [6] of at least 80%. The inhibition of growth at 20 ppm in data set [7] was at least 80%.

As for `CC(CC1CCCCC1)(CC(F)(F)F)NC(=O)c1cnc2ccccc2c1` (stereo not shown) [E-60], the melting point lay in the range of 70 to 87 °C. For the same compound, the inhibition of growth at 20 ppm in [1] was at least 80%. Besides, the inhibition of growth at 20 ppm in [2] is at least 80%. In data set [3], the inhibition of growth at 20 ppm is at least 80%. In addition, the pest or weed control at 200 ppm in [4] was at least 80%. The compound further came in with an inhibition of growth at 20 ppm in data set [6] of at least 80%. Moreover, the inhibition of growth at 20 ppm in [7] is at least 80%.

For `CC(CC1CCCC1)(CC(F)(F)F)NC(=O)c1cnc2ccccc2c1` (stereo not shown) [E-63], the melting point lay in the range of 94 to 103 °C. Moreover, the inhibition of growth at 20 ppm in [1] was at least 80%. The inhibition of growth at 20 ppm in [2] is at least 80%. In addition, the inhibition of growth at 20 ppm in data set [3] was at least 80%. For the same compound, in data set [4], the pest or weed control at 200 ppm is at least 80%. The compound also gave an inhibition of growth at 20 ppm in [6] of at least 80%. Moreover, the inhibition of growth at 20 ppm in data set [7] is at least 80%. Further, the inhibition of growth at 20 ppm in [8] was at least 80%.

`Cc1cccc2cc(C(=O)NC(C)(CC3CCCC3)CC(F)(F)F)cnc12` (stereo not shown) [E-64] registered a melting point of 108 to 116 °C. The inhibition of growth at 20 ppm in data set [1] is at least 80%. Also, in data set [2], the inhibition of growth at 20 ppm was at least 80%. Moreover, the inhibition of growth at 20 ppm in data set [3] is at least 80%. The pest or weed control at 200 ppm in data set [4] is at least 80%. The inhibition of growth at 20 ppm in [6] was at least 80%. Also, in [7], the inhibition of growth at 20 ppm is at least 80%. For the same compound, the inhibition of growth at 20 ppm in data set [8] was at least 80%.

Regarding `CC1(C[C@](C)(CC(F)(F)F)NC(=O)c2cnc3c(F)cccc3c2)CC1` [F-1, 8-fluoro-N-[(1R)-3,3,3-trifluoro-1-methyl-1-[(1-methylcyclo-propyl)meth-yl]propyl] quinoline-3-carboxamide], the inhibition of growth at 20 ppm in data set [1], in [2], in data set [3], in data set [6] and in data set [7] was at least 80% in each case. Further, the pest or weed control at 200 ppm in [4] and in data set [5] was at least 80% in each case.

The compound `C[C@](CC1CCCC1)(CC(F)(F)F)NC(=O)c1cnc2c(F)cccc2c1` [F-5, N-[(1S)-1-(cyclopentylmeth-yl)-3,3,3-trifluoro-1-methyl-propyl]-8-fluoro-quinoline-3-carboxamide] yielded a melting point of 102 to 105 °C. Moreover, the inhibition of growth at 20 ppm in data set [1] was at least 80%. In data set [2], the inhibition of growth at 20 ppm was at least 80%. The inhibition of growth at 20 ppm in data set [3] is at least 80%. Further, the pest or weed control at 200 ppm in [4] was at least 80%. The inhibition of growth at 20 ppm in data set [7] is at least 80%. Besides, the inhibition of growth at 20 ppm in data set [8] was at least 80%.
